Measured values published in US20080241274A1 (ZIOPHARM Oncology, Inc., priority 2006, published 2008).

Experiments:
[1] = test system: biotin-labeled calf brain tubulin; assay: Competition with 3H-colchicine for tubulin binding (SPA beads); set-up: species or system bovine; details: 200-fold molar excess of cold competitor; FIG. 8
Experimental: Where indicated, a 200-fold molar excess of cold competitor was added. Tubulin heterodimers were then precipitated with streptavidin-coated SPA beads and bound radioactivity was determined. “No tubulin” indicates non-specifically bound radioactivity measured in the absence of biotin-labeled tubulin.

[2] = test system: MCF7 breast cancer xenografts; assay: MCF7 breast cancer xenograft; assay type: in vivo, Human; details: 38.3 mg/kg/d, 4×(3× week), at sacrifice of control group animals
From the text: The significant differences in pharmacodynamics and safety profile of indibulin make it a strong candidate for development as an anti-cancer drug.

papillary thyroid cancer = assay: Phase I study, patient with papillary thyroid cancer; assay type: in vivo, human; details: 400 mg BID continuous treatment
From the text: Treatment is ongoing. […] Treatment is ongoing.

O=C(Nc1ccncc1)C(=O)c1cn(Cc2ccc(Cl)cc2)c2ccccc12 [Indibulin, N-(pyridin-4-yl)-[1-(4-chlorobenzyl)-indol-3-yl]-glyoxylic acid amide]
Inhibition of 3H-colchicine binding [1]: about 40%
Growth Inhibition (%) [2]: >100%
Decrease of thyroglobulin level from baseline (papillary thyroid cancer; after 15th day of dosing): 34%
Decrease of tumor measurements (papillary thyroid cancer; at first assessment): 11%
Disease status after treatment (papillary thyroid cancer; person): stable disease
